Laboratory results from patent US5244916A, “Inhibition of respiratory burst using posttranslational modification inhibitors” (The Scripps Research Institute, priority 1992, dated 1993).

Columns and labels:
[1] = tested on: CD14 antigen; test: HL-60 differentiation: CD14 antigen expression (flow cytometry); format: cell-based; conditions: compactin-treated cells
Method: (§1) HL-60 cells were maintained in stationary culture in RPMI 1640 medium (Gibco, Grand Island, NY) containing 10% fetal bovine serum at 37° C in an atmosphere of 95 air and 5% CO2. The cells (about 8×10^5 /ml) were differentiated into neutrophil-like cells by treatment with 1.3% DMSO for six days (Harris, et al., J. Leukocyte Biol. 37: 407-422 (1985)). The cells were treated with the indicated levels of compactin or lovastatin by addition of a 1,000-fold concentrated stock solution to the appropriate concentration on day 4 of differentiation. […]
(§2) Cell viability was determined by uptake of propidium iodide (537-059; Calbiochem-Behring Corp., La Jolla, CA), detected from the emission fluorescence at 625/35 nm using a DM560 dichronic mirror (Krishan, J. Cell. Biol. 66: 188-192 (1975)). Expression of N-formyl peptide receptor was determined using fluorescein-labeled N-CHONle-Leu-Phe-Nle-Tyr-Lys (Molecular Probes, Inc., Eugene, OR) essentially by the method of Sklar and Finney (Sklar and Finney, Cytometry 3: 161-165 (1982)). Specificity of ligand binding was determined in the presence of 4 mM unlabeled T-boc peptide. […]
(§3) HL-60 differentiation was assessed using two distinct markers: appearance of N-formyl peptide receptors and appearance of the CD14 antigen.

[2] = tested on: cytochrome b558; test: Cytochrome b558 levels in HL-60 cells by Western blot; format: cell-based; conditions: 10 μM compactin
[3] = tested on: Rap1; test: Western blot of Rap1 in membrane and cytosol fractions of HL-60 cells; format: cell-based; conditions: 10 μM compactin
Method: Western blots were performed as described in Bokoch, et al., Cell Biol. 106: 1927-1936 (1988).
The ability of the concentrations of compactin used to inhibit endogenous HL-60 cell LMWG isoprenylation was assessed. Inhibition of Rapl isoprenylation was determined in two ways. Western blotting was used to evaluate the presence of Rap1 in cytosol or membrane fractions of compactin-treated vs. untreated cells (see FIG. 1). […] HL-60 cells were treated with ±10 μM compactin, and membrane and cytosol fractions were prepared as described in Example 1. Equal amounts of membrane protein (100 μg) and cytosol protein (70 μg), respectively,were loaded in each lane. Total membrane protein obtained in this experiment from about 3×10^8 cells was about 3 mg and cytosolic protein was about 2 mg. The samples were analyzed on 15% SDS-polyacrylamide gels (SDS-PAGE), transferred to nitrocellulose, and blotted with specific anti-Rapl antibody, R61, at 1:500 dilution. Detection was with ^125 I-goat anti-rabbit IgG and autoradiograms were exposed for 24-36 hours with intensifying screen at -70° C.

[4] = tested on: N-formyl peptide receptor; test: HL-60 differentiation: N-formyl peptide receptor expression (flow cytometry); format: cell-based; conditions: compactin-treated cells
Method: as §1, §2, §3

[5] = tested on: NADPH oxidase; test: Cell-free O2- formation by subcellular fractions from compactin-treated HL-60 cells, complemented with human neutrophil fractions, SDS-initiated; format: biochemical; conditions: for Rate of O2 formation / Rate, percent of respective untreated HL-60 sample: 10 μM
Method: The cells were then pelleted and resuspended in 10 mM Pipes pH 7.3, 100 mM KCl, 3 mM NaCl, 1 mM ATP, 3.5mM MgCl2 (Relax buffer) plus 100U aprotonin/ml, 1 mM PMSF, and 0.34M sucrose to a final concentration of about 1×10^8 /ml. […] Louis, MO), 6.25 mM MgCl2, 93 mM KCl, 2.8 mM NaCl, 9.3 mM Pipes pH 7.3, 0.8mM ATP, 0.16 mM NADPH, 10 μM GTPgammaS, 225 μg HL-60 cytosol, or 250 μg ([…]; cell equivalents) of human neutrophil cytosol and ±300μg/ml SOD (Sigma Chemical Co., St. Louis, MO). After a three-minute equilibration at 25° C., the formation of O2 --was initiated by the addition of 100 μM SDS. O2 --generation was monitored continuously as the SOD-sensitive reduction of cytochrome c at 550 nm. Human neutrophil plasma membranes (gamma-GSP) and cytosol (GSS) were prepared as described in (Curnutte, et al., suora (1987)). […] To localize the compactin-sensitive factor required for NADPH oxidase activity to either the cytosol, membrane, or both, subcellular fractions from control or compactin-treated differentiated HL-60 cells were prepared. The membrane fraction and cytosol from the cells were then analyzed using the cell-free NADPH oxidase system. […] HL-60 cells were treated ±10 μM compactin, as described herein. Untreated cytosol/membrane and compactin cytosol/membrane, etc., refer to the fractions obtained from these cells. Values are the result of duplicate determinations within each experiment. Values in parentheses represent the percent of the rate obtained for the respective untreated HL-60 sample. Whether the inhibited factor(s) was present in the membrane fraction or cytosol was determined via performing complementation experiments using cytosol or membranes from normal human neutrophils. Data from these experiments is illustrated above in Table 3 and in FIG. 2. FIG. 2 illustrates complementation analysis of O2 -formation by control versus compactin-treated HL-60 cells. O2 --formation was analyzed in a cell-free assay as described in the Examples. Line A represents untreated HL-60 membrane +neutrophil GSS; line B represents compactin-treated HL-60 membrane+neutrophil GSS; line C represents untreated HL-60 cytosol+neutrophil gamma GSP; line D represents compactin-treated HL-60 cytosol+neutrophil gamma GSP.

[6] = Exp. 1, compactin cytosol + compactin membrane
[7] = Exp. 1, compactin cytosol + neutrophil membrane
[8] = Exp. 1, neutrophil cytosol + compactin membrane
[9] = Exp. 2, compactin cytosol + compactin membrane
[10] = Exp. 2, compactin cytosol + neutrophil membrane
[11] = Exp. 2, neutrophil cytosol + compactin membrane
[12] = Exp. 3, compactin cytosol + neutrophil membrane
[13] = Exp. 3, neutrophil cytosol + compactin membrane

CC[C@H](C)C(=O)O[C@H]1CCC=C2C=C[C@H](C)[C@H](CC[C@@H]3C[C@@H](O)CC(=O)O3)[C@H]21 [compactin]
CD14 expression [1]: normal | expression of cytochrome b558 [2]: normal | Rap1 membrane association after treatment [3]: a portion of this GTP-binding protein was still membrane associated | appearance of Rap1 in the cytosolic fraction [3]: large amounts | total Rap1 previously associated with the membrane pellet now soluble ([3]; densitometry, n=3): 60-70% | N-formyl peptide receptor expression [4]: normal | rate and extent of the burst, fractions from compactin-pretreated cells ([5]; 10 μM compactin, compactin cytosol + compactin membrane, 100 μM SDS): less than 10 % of control values | Rate of O2 formation [5, 6]: 0.1 nmol/min | Rate, percent of respective untreated HL-60 sample [5, 6]: 1% | Rate of O2 formation [5, 7]: 1.1 nmol/min | Rate, percent of respective untreated HL-60 sample [5, 7]: 33% | Rate of O2 formation [5, 8]: 1.9 nmol/min | Rate, percent of respective untreated HL-60 sample [5, 8]: 95% | Rate of O2 formation [5, 9]: 0.4 nmol/min | Rate, percent of respective untreated HL-60 sample [5, 9]: 5% | Rate of O2 formation [5, 10]: 1.5 nmol/min | Rate, percent of respective untreated HL-60 sample [5, 10]: 37% | Rate of O2 formation [5, 11]: 2.6 nmol/min | Rate, percent of respective untreated HL-60 sample [5, 11]: 100% | Rate of O2 formation [5, 12]: 2.4 nmol/min | Rate, percent of respective untreated HL-60 sample [5, 12]: 47% | Rate of O2 formation [5, 13]: 4.0 nmol/min | Rate, percent of respective untreated HL-60 sample [5, 13]: 98% | rate of O2- formation relative to untreated HL-60 cytosol ([5]; compactin cytosol + neutrophil membrane): about one-third | lag period after addition of SDS ([5]; compactin cytosol + neutrophil membrane, FIG. 2): marked increase | rate of O2- formation with membrane from compactin-treated cells ([5]; compactin membrane + neutrophil cytosol, versus untreated): essentially identical | ability of cytosol to support oxidative response ([5]; cytosol from compactin-treated cells): largely defective | ability of membrane fraction to support respiratory burst ([5]; membrane from compactin-treated cells): fully support a normal respiratory burst
